What was measured:
[1] = tested on: Sclera fibroblast; assay: Gene expression by real-time PCR in LPS-treated primary scleral fibroblasts; assay type: cell-based, hamster
Description: R28 rat retinal epithelial cells were provided by Gail Seigel at the Ross Eye Institute (SUNY, Buffalo, N.Y., USA). The cells were cultured in Dulbecco's modified Eagle's medium (DMEM) with 10% fetal bovine serum (FBS) at 37° C. and 5% CO2, with medium replacement every 3 days to 4 days. Sclera were placed in a 60-mm culture dish in DMEM supplemented with 10% FBS to isolate primary scleral fibroblasts; those from fewer than three passages were used in experiments. […] Cell lysates were collected for quantitative (q)PCR to determine gene expression levels.
Total RNA was extracted using the RNeasy MiniKit (Qiagen, Valencia, Calif., USA), and 5 μg of RNA was reverse-transcribed to cDNA by using the Superscript First Strand Synthesis system (Invitrogen, Carlsbad, Calif., USA). Primers and probes used for qPCR were selected from the Universal Probes Library (Roche, West Sussex, UK). Transcript levels were normalized to those of glyceraldehyde 3-phosphate dehydrogenase in each sample.

[2] = tested on: ARPE-19 human retinal pigment epithelial cells; assay: Western blot of LPS-induced signaling in ARPE-19 cells (atropine); assay type: cell-based; settings: LPS + 100 μM atropine
Description: ARPE-19 human retinal pigment epithelial cells were obtained from the Bioresource Collection and Research Center, HsinChu, Taiwan (BCRC; BCRC-60383). Cells were cultured in DMEM with 10% FBS at 37° C. and 5% CO2, with medium replacement every 3 to 4 days. […] After treatment, 30 μg of total cell lysates was subjected to sodium dodecyl sulfate polyacrylamide gel electrophoresis (SDS-PAGE), followed by immunoblot analysis. Primary antibodies used included ERK (Thr202/Tyr204), AKT (Ser473), PI3K (p85[Tyr458]/p55[Tyr199]), NF-κB (p65, Ser536), and c-Fos (Ser32; Cell Signaling, Beverly, Mass., USA). Antirabbit or antimouse secondary antibody conjugated with horseradish peroxidase was also used. Immunoreactive protein bands were detected using an enhanced chemiluminescence kit (ECL, Pierce, Thermo Fisher Scientific, Pittsburgh, Pa., USA). Equal loading was confirmed through probing the blots with β-actin antibody (Abcam, Cambridge, Mass., USA) as well as anti-ERK, AKT, PI3K, NF-κB, and c-Fos.

[3] = sclera fibroblast, 100 ng/ml LPS and 100 μM atropine for 4 hours

CN1[C@@H]2CC[C@H]1C[C@@H](OC(=O)C(CO)c1ccccc1)C2 (stereo partly drawn) [Atropine, atropine]
Chrm5 gene expression level [1]: 0.98 ± 0.12 | Chrm 1 gene expression level [1, 3]: 0.73 ± 0.11 | Chrm 2 gene expression level [1, 3]: 1.24 ± 0.14 | Chrm 3 gene expression level [1, 3]: 0.70 ± 0.23 | Chrm 4 gene expression level [1, 3]: 1.11 ± 0.17 | Fos gene expression level [1, 3]: 0.93 ± 0.17 | IL1b gene expression level [1, 3]: 0.75 ± 0.13 | IL10 gene expression level [1, 3]: 1.05 ± 0.21 | IL-6 gene expression level [1, 3]: 0.79 ± 0.18 | MMP2 gene expression level [1, 3]: 0.74 ± 0.19 | NFkB gene expression level [1, 3]: 0.36 ± 0.3 | Tgfb1 gene expression level [1, 3]: 0.48 ± 0.24 | Tnfa gene expression level [1, 3]: 0.80 ± 0.2 | Activation of ERK through LPS and downstream c-FOS [2]: inhibited | LPS activation of PI3K, AKT, and NF-κB [2]: inhibited

Source: patent publication US20210283087A1, “METHOD FOR TREATING AND RELIEVING MYOPIA” (China Medical University, priority 2014, published 2021)
